From patent US7081460B2, “Quinazoline and quinazoline-like compounds for the treatment of integrin-mediated disorders” (Ortho-McNeil Pharmaceutical, Inc., priority 2001, dated 2006)
Read-outs that look alike come from different tables or passages of the source.

How the values were obtained:
Human αvβ3 = molecular target: T1, Human αvβ3 (Homo sapiens, UniProt P05106+P06756); experiment: In vitro solid phase purified αvβ3 binding assay (vitronectin/αvβ3)
T1 construct: purchased Chemicon International Inc., Temecula, Calif
Procedure, shortened: (§1)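 αvβ3 (1 μg/ml) immobilised in Tris buffer with Ca2+/Mg2+/Mn2+, compounds added 5 min before 5 nM vitronectin, 3 h at 37 °C; bound vitronectin detected by anti-vitronectin antibody/peroxidase ELISA at 490 nm. GPIIb/IIIa coated overnight at 4 °C, biotinylated fibrinogen with compounds 2–4 h RT in modified Tyrodes buffer, avidin-HRP/o-phenylenediamine read at 490 nm.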

GPIIb/IIIa = GPIIb/IIIa (Homo sapiens, UniProt P05106+P08514); experiment: In vitro solid phase purified glycoprotein IIb/IIIa binding assay (biotinylated fibrinogen)
Procedure, shortened: as §1

[1] = isolated human αvβ3, 5 nM vitronectin, read-out: αvβ3 Binding IC50
[2] = RGD-affinity purified GPIIb/IIIa, biotinylated fibrinogen, read-out: GPIIb/IIIa Binding IC50

Chain of GPIIb/IIIa (P08514 32-887 limits assumed): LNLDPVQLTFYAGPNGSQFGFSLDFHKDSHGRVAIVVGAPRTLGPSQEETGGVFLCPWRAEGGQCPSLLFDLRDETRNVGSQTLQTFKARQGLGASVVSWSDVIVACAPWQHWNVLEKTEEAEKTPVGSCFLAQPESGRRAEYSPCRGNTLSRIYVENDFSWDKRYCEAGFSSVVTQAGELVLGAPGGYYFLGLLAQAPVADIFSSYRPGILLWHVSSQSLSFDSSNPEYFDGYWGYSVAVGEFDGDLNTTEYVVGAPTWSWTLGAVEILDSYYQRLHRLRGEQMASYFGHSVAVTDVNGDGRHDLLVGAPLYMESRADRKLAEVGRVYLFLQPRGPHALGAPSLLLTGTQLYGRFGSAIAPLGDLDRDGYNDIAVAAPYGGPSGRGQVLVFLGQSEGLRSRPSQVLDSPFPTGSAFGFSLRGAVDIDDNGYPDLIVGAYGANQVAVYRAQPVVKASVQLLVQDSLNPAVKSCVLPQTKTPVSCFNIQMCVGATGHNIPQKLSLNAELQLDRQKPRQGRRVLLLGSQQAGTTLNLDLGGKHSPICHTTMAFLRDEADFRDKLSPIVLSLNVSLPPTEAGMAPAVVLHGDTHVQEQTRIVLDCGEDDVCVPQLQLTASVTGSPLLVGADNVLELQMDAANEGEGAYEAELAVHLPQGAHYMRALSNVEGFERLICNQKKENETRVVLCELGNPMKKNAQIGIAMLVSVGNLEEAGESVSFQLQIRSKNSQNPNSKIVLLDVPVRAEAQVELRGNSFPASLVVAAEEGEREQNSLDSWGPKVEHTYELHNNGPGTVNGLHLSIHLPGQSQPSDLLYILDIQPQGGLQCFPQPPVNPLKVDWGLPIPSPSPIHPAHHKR
Chain of GPIIb/IIIa (P08514 891-1039 partner limits assumed): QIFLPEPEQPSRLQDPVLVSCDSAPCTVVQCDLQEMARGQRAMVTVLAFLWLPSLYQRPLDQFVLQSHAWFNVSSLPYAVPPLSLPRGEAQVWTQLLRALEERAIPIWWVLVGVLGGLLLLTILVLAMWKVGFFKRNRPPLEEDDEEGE
Chain of GPIIb/IIIa (P05106 27-788): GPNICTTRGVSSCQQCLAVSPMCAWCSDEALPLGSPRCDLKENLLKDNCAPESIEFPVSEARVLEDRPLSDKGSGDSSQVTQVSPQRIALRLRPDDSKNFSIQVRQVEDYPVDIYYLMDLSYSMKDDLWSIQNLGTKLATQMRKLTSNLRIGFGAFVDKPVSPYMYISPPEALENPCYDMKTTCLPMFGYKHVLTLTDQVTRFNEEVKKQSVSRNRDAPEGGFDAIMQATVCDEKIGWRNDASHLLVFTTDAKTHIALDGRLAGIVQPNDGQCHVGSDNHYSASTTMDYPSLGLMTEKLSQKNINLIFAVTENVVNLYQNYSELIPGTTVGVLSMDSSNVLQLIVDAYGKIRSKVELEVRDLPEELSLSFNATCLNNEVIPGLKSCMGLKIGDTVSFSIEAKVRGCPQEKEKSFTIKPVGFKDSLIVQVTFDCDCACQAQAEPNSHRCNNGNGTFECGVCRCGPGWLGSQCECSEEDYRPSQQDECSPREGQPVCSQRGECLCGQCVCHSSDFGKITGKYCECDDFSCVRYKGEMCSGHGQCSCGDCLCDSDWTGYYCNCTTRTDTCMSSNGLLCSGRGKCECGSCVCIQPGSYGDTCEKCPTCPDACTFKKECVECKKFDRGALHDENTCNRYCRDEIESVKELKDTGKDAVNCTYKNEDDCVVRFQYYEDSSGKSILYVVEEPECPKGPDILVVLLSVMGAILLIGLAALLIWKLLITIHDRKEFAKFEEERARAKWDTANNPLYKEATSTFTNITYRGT
T1 sequence (P06756 31-889 limits assumed): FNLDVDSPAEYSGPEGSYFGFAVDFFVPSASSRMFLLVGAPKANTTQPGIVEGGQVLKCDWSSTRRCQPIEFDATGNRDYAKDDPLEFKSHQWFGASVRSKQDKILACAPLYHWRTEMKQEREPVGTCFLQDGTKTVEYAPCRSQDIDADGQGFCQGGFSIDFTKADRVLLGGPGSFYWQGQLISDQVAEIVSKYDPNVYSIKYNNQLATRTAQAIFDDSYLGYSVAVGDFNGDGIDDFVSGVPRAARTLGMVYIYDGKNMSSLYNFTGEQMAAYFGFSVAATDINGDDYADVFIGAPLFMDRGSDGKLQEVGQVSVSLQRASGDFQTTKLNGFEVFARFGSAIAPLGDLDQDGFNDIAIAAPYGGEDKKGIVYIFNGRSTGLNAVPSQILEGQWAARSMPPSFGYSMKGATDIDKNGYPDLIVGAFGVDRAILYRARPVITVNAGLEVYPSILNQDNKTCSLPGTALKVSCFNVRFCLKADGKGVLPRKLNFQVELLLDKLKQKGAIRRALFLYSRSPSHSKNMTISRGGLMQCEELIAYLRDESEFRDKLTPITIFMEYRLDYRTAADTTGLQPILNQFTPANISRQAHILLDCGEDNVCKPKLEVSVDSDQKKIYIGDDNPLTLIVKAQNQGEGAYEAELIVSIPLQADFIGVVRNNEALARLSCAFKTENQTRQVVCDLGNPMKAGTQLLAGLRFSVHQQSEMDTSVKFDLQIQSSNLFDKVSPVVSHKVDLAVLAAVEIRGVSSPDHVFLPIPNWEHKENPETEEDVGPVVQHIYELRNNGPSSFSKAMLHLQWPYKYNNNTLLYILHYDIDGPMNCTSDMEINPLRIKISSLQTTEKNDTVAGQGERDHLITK
T1 sequence (P06756 891-1048 partner limits assumed): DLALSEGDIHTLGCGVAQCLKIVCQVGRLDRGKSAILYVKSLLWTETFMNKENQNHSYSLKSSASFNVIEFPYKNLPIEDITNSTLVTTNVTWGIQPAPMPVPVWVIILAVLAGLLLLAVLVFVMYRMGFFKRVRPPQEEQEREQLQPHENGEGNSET
T1 sequence (P05106 27-788): as the sequence (P05106 27-788) above

Molecule	IC50 (Human αvβ3; [1]) [nM]	IC50 (GPIIb/IIIa; [2]) [nM]	IC50 (Human αvβ3) [nM]	IC50 (GPIIb/IIIa) [nM]
O=C(NC/C=C/c1ccc2nc(C[C@H](NS(=O)(=O)CCc3cccc4ccccc34)C(=O)O)[nH]c(=O)c2c1)NCc1ccccc1 [Compound 76, (αS)-3,4-dihydro-α-[[[2-(1-naphthalenyl)ethyl]sulfonyl]amino]-4-oxo-6-[(1E)-3-[[[(phenylmethyl)amino]carbonyl]amino]-1-propenyl]-2-quinazolinepropanoic acid]	> 500	45000		
Cc1c(C)c(C)c(S(=O)(=O)N[C@@H](Cc2nc3ccc(/C=C/CNC(=N)c4cccnc4)cc3c(=O)[nH]2)C(=O)O)c(C)c1C [Compound 47, (αS)-3,4-dihydro-6-[(1E)-3-[(imino-3-pyridinylmethyl)amino]-1-propenyl]-4-oxo-α-[[(2,3,4,5,6-pentamethylphenyl)sulfonyl]amino]-2-quinazolinepropanoic acid]	132	96		
Cn1c(C(CC(=O)O)c2ccccc2)nc2ccc(C=CCNC3=NCCN3)cc2c1=O [Compound 78, (βR,S)-3,4-dihydro-3-methyl-4-oxo-β-phenyl-6-[(1E)-3-[(4,5-dihydro-1H-imidazol-2-yl)amino]-1-propenyl]-2-quinazolinepropanoic acid]	5400	55000		
O=C(NC/C=C/c1ccc2nc(C[C@H](NS(=O)(=O)c3cccs3)C(=O)O)[nH]c(=O)c2c1)NCc1ccccc1 [Compound 72, (αS)-3,4-dihydro-4-oxo-6-[(1E)-3-[[[(phenylmethyl)amino]carbonyl]amino]-1-propenyl]-α-[(2-thienylsulfonyl)amino]-2-quinazolinepropanoic acid]	1300	17000		
COc1ccc(OC(=O)N[C@@H](Cc2nc3ccc(/C=C/CNC(=O)NCc4ccccc4)cc3c(=O)[nH]2)C(=O)O)cc1 [Compound 77, (αS)-3,4-dihydro-α-[[(4-methoxyphenoxy)carbonyl]amino]-4-oxo-6-[(1E)-3-[[[(phenylmethyl)amino]carbonyl]amino]-1-propenyl]-2-quinazolinepropanoic acid]			> 500	46000
C/C(=C\NC(=O)NC1CCCCC1)c1ccc2nc(C[C@H](NS(=O)(=O)c3c(C)c(C)c(C)c(C)c3C)C(=O)O)[nH]c(=O)c2c1 [Compound 79, 6-[(E)-2-[[(cyclohexylamino)carbonyl]amino]-1-methylethenyl]-(αS)-3,4-dihydro-4-oxo-α-[[(2,3,4,5,6-pentamethylphenyl)sulfonyl]amino]-2-quinazolinepropanoic acid]	> 500	7300		
Cc1c(C)c(C)c(S(=O)(=O)N[C@@H](Cc2nc3ccc(/C=C/CNC(=O)NC4C[C@H]4c4ccccc4)cc3c(=O)[nH]2)C(=O)O)c(C)c1C (stereo partly drawn) [Compound 66, (αS)-3,4-dihydro-4-oxo-α-[[(2,3,4,5,6-pentamethylphenyl)sulfonyl]amino]-6-[(1E)-3-[[[[(2S)-2-phenylcyclopropyl]amino]carbonyl]amino]-1-propenyl]-2-quinazolinepropanoic acid]	210	780		
O=C(N[C@@H](Cc1nc2ccc(-c3cccc(NC4=NCCN4)c3)cc2c(=O)[nH]1)C(=O)O)OCc1ccccc1 [Compound 9, 6-[3-[(4,5-dihydro-1H-imidazol-2-yl)amino]phenyl]-(αS)-3,4-dihydro-4-oxo-α-[[(phenylmethoxy)carbonyl]amino]-2-quinazolinepropanoic Acid]	> 5000	88		
COc1ccc(S(=O)(=O)N[C@@H](Cc2nc3ccc(/C=C/CNC4=NCCCCCC4)cc3c(=O)[nH]2)C(=O)O)cc1OC [Compound 68, α-[[(3,4-dimethoxyphenyl)sulfonyl]amino]-6-[(1E)-3-[(3,4,5,6,7,8-hexahydro-2-azocinyl)amino]-1-propenyl]-(αS)-3,4-dihydro-4-oxo-2-quinazolinepropanoic acid]	440	230		
Cc1c(C)c(C)c(S(=O)(=O)N[C@@H](Cc2nc3ccc(/C=C/CN4CCCC4=N)cc3c(=O)[nH]2)C(=O)O)c(C)c1C [Compound 27, (αS)-3,4-dihydro-6-[(1E)-3-(2-imino-1-pyrrolidinyl)-1-propenyl]-4-oxo-α-[[(2,3,4,5,6-pentamethylphenyl)sulfonyl]amino]-2-quinazolinepropanoic acid]	120	19		
O=C(Nc1ccccc1)N[C@@H](Cc1nc2ccc(/C=C/CNc3ccccn3)cc2c(=O)[nH]1)C(=O)O [Compound 12, (αS)-3,4-dihydro-4-oxo-α-[[(phenylamino)carbonyl]amino]-6-[(E)-3-(2-pyridinylamino)-1-propenyl]-2-quinazolinepropanoic Acid]	> 500	18000		
6-[(1E)-4-[[(aminoiminomethyl)amino]oxy]-1-butenyl]-(αS)-3,4-dihydro-4-oxo-α-[[(2,3,4,5,6-pentamethylphenyl)sulfonyl]amino]-2-quinazolinepropanoic Acid [Compound 16]	268	36		
COc1ccc(OC(=O)N[C@@H](Cc2nc3ccc(/C=C/CNC4=NCCN4)cc3c(=O)[nH]2)C(=O)O)cc1 [Compound 63, 6-[(1E)-3-[(4,5-dihydro-1H-imidazol-2-yl)amino]-1-propenyl]-(αS)-3,4-dihydro-α-[[(4-methoxyphenoxy)carbonyl]amino]-4-oxo-2-quinazolinepropanoic acid]			100	950

More lines, in order of falling IC50 (Human αvβ3; [1]), values ahead:

IC50 (Human αvβ3; [1]) [nM]	IC50 (GPIIb/IIIa; [2]) [nM]	Molecule	IC50 (Human αvβ3) [nM]	IC50 (GPIIb/IIIa) [nM]
79	4100	Cc1cc(C)c(S(=O)(=O)N[C@@H](Cc2nc3ccc(/C=C/CNC(=O)NCc4ccccc4)cc3c(=O)[nH]2)C(=O)O)c(C)c1 [Compound 62, (αS)-3,4-dihydro-4-oxo-6-[(1E)-3-[[[(phenylmethyl)amino]carbonyl]amino]-1-propenyl]-α-[[(2,4,6-trimethylphenyl)sulfonyl]amino]-2-quinazolinepropanoic acid]		
69	12000	Cc1c(C)c(C)c(S(=O)(=O)N[C@@H](Cc2nc3ccc(/C=C/CNc4nc5ccccc5c(=O)[nH]4)cc3c(=O)[nH]2)C(=O)O)c(C)c1C [Compound 61, 6-[(1E)-3-[(3,4-dihydro-4-oxo-2-quinazolinyl)amino]-1-propenyl]-(αS)-3,4-dihydro-4-oxo-α-[[(2,3,4,5,6-pentamethylphenyl)sulfonyl]amino]-2-quinazolinepropanoic acid]		
54	700	Cc1noc(C)c1S(=O)(=O)N[C@@H](Cc1nc2ccc(/C=C/CNc3ccccn3)cc2c(=O)[nH]1)C(=O)O [Compound 37, α-[[(3,5-dimethyl-4-isoxazolyl)sulfonyl]amino]-(αS)-3,4-dihydro-4-oxo-6-[(1E)-3-(2-pyridinylamino)-1-propenyl]-2-quinazolinepropanoic acid]		
25	2700	Cc1nn(C)c(Cl)c1S(=O)(=O)N[C@@H](Cc1nc2ccc(/C=C/CNc3ccccn3)cc2c(=O)[nH]1)C(=O)O [Compound 36, α-[[(5-chloro-1,3-dimethyl-1H-pyrazol-4-yl)sulfonyl]amino]-(αS)-3,4-dihydro-4-oxo-6-[(1E)-3-(2-pyridinylamino)-1-propenyl]-2-quinazolinepropanoic acid]		
23	1400	O=C(O)[C@H](Cc1nc2ccc(/C=C/CNc3ccccn3)cc2c(=O)[nH]1)NS(=O)(=O)c1ccc2ccccc2c1 [Compound 24, (αS)-3,4-dihydro-α-[(2-naphthalenylsulfonyl)amino]-4-oxo-6-[(1E)-3-(2-pyridinylamino)-1-propenyl]-2-quinazolinepropanoic acid]		
19	240	COC(=O)[C@H](Cc1nc2ccc(/C=C/CNC3=NCCN3)cc2c(=O)[nH]1)NS(=O)(=O)c1c(C)c(C)c(C)c(C)c1C [Compound 41, 6-[(1E)-3-[(4,5-dihydro-1H-imidazol-2-yl)amino]-1-propenyl]-(αS)-3,4-dihydro-4-oxo-α-[[(2,3,4,5,6-pentamethylphenyl)sulfonyl]amino]methyl ester 2-quinazolinepropanoic acid]		
15	1800	Cc1ccnc(NC/C=C/c2ccc3nc(C[C@H](NS(=O)(=O)c4c(C)c(C)c(C)c(C)c4C)C(=O)O)[nH]c(=O)c3c2)c1 [Compound 45, (αS)-3,4-dihydro-6-[(1E)-3-[(4-methyl-2-pyridinyl)amino]-1-propenyl]-4-oxo-α-[[(2,3,4,5,6-pentamethylphenyl)sulfonyl]amino]-2-quinazolinepropanoic acid]		
15	1300	COc1ccc(S(=O)(=O)N[C@@H](Cc2nc3ccc(/C=C/CNc4ccccn4)cc3c(=O)[nH]2)C(=O)O)cc1 [Compound 26, (αS)-3,4-dihydro-α-[[(4-methoxyphenyl)sulfonyl]amino]-4-oxo-6-[(1E)-3-(2-pyridinylamino)-1-propenyl]-2-quinazolinepropanoic acid]		
8.8	820	Cc1c(C)c(C)c(S(=O)(=O)N[C@@H](Cc2nc3ccc(/C=C/CNC(=O)NCc4ccccc4)cc3c(=O)[nH]2)C(=O)O)c(C)c1C [Compound 49, (αS)-3,4-dihydro-4-oxo-α-[[(2,3,4,5,6-pentamethylphenyl)sulfonyl]amino]-6-[(1E)-3-[[(benzylamino)carbonyl]amino]-1-propenyl]-2-quinazolinepropanoic acid]		
5.3	41	O=C(O)[C@H](Cc1nc2ccc(/C=C/CNC3=NCCN3)cc2c(=O)[nH]1)NS(=O)(=O)c1ccc(-c2ccccn2)s1 [Compound 6, 6-[(1E)-3-[(4,5-dihydro-1H-imidazol-2-yl)amino]-1-propenyl]-(αS)-3,4-dihydro-4-oxo-α-[[[5-(2-pyridinyl)-2-thienyl]sulfonyl]amino]-2-quinazolinepropanoic Acid]		
